Read-outs that look alike come from different tables or passages of the source.
Tests used:
[1] = target: T1, CesA6 central cytoplasmic domain (Arabidopsis thaliana, UniProt Q94JQ6); assay: biochemical; format: binding; settings: MST; SUMO-His / GFP tagged CesA6 central cytoplasmic domain purified from E. coli; read-out: dissociation constant (Kd)
T1 construct: we expressed and purified the central cytoplasmic domain of CesA6 from E. coli; made in house; host or cells: E. coli
T1 sequence (Q94JQ6 322-868 limits assumed): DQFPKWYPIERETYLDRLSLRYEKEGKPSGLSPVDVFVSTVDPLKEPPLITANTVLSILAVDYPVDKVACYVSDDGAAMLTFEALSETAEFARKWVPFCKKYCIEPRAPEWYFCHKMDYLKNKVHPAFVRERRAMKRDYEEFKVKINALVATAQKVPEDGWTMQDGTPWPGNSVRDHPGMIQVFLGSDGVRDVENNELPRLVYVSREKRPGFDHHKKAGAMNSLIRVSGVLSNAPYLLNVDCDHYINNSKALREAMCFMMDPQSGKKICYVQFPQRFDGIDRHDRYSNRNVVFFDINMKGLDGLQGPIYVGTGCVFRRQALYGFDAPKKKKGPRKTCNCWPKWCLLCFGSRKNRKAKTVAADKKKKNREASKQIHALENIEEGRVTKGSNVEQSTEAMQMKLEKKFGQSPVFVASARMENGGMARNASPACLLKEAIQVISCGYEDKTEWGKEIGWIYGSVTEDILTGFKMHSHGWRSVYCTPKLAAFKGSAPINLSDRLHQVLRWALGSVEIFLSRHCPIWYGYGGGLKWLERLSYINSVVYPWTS

[2] = system: wildtype Arabidopsis seedlings; assay: Arabidopsis seedling root growth on media supplemented with compound; format: in vivo, Arabidopsis thaliana; settings: for activity at 1 µM: Arabidopsis thaliana
Experimental: FIG. 2A. […] FIG. 2B. […] FIG. 2C. Quantification on the root length of 6 days old wildtype and mutant seedlings grown on growth media supplemented with DMSO solvent control. FIG. 2D. […] FIG. 2E. The ratio of root length from plants grown on 1 μM ES20 and those grown on DMSO for each genotype. The root length of wildtype plants grown on 1 μM ES20 was reduced to about 25% of those grown on DMSO. […] FIG. 2F.
The root length of wildtype plants grown on 1 μM ES20 is about 20% of those that are grown on normal media.
Individual hypocotyl epidermal cells from plants grown on ES20 media are swollen as well in compare with those grown on regular media (FIG. 1H). These growth assays indicate that ES20 inhibits cell growth and causes cells to grow in an isotropic manner instead of anisotropic manner. The composition and organization of cell wall determines plant cell shapes.
In order to identify the cell growth pathways that are targeted by ES20, we performed a chemical genetic screen for mutants that have reduced sensitivity to this growth inhibitor. […] However, we found plants that have normal green cotyledons and leaves and elongated roots. These plants became obviously heathier and stronger than other plants after two weeks of growth on ES20 and were transferred to soil to get the M3 population. […] We generated the mapping population and used high-throughput whole genome sequencing to clone the mutant genes. […] 10 out of the 12 mutants were in CesA6 and two in CesA7. After two times of backcrosses, we consistently detected less sensitivity in these mutants to ES20 (FIGS. 2A to 2E).
In order to identify key structure in ES20 that causes its inhibition activity, we collected three close analogs of ES20 (FIG. 7A) and tested for their effect in inhibiting plant growth.

[3] = system: dark-grown Arabidopsis hypocotyls; assay: crystalline cellulose content in dark-grown seedlings; format: in vivo, Arabidopsis thaliana; settings: concentration printed as 'M ES20'
Text: Swollen cells and organs in plants are often caused by direct or indirect disruption of cell wall biosynthesis or organization. For example, swollen cells and roots have been found in cesa mutants and in plants treated with inhibitors of cellulose synthesis and microtubule organization (Arioli, T., et al., Science 1998, 279, 717-720; Burn, J. E., et al., Plant Physiol. 2002, 129, 797-807). The retarded growth and cell swollen phenotypes indicate that ES20 could affect cell growth through interfering with cell wall biosynthesis or organization. To test whether ES20 affects cell wall composition, we took the straightforward approach of analyzing crystallize cellulose content in seedlings grown in the presence of different concentrations of ES20 (Updegraff, D. M. Anal. Biochem. 1969, 32, 420-424). […] The content of crystalline cellulose in seedlings grown on M ES20 was reduced to about 50% of the seedlings grown in the absence of ES20 (FIG. 1J).

tomato = tomato growth on media containing ES20; format: in vivo; settings: grown on growth media containing ES20
Text: (§1) FIG. 8B depicts 16-day-old tomato and horseweed grown on the media in the absence and presence of Cellulosin. Bars, 1 cm.
(§2) Because cellulose synthase is highly conserved in plants and ES20 targets the conserved catalytic domain, we hypothesize that ES20 is active in different plants, including common weeds. We tested this hypothesis by growing tomato and horseweed on growth media containing ES20.

horseweed = horseweed growth on media containing ES20; format: in vivo; settings: grown on growth media containing ES20
Text: as §1, §2

tobacco pollen tube = assay: tobacco pollen growth assay; format: cell-based; settings: in vitro culture
Experimental: (§3) In order to identify small molecules that could be used in studying plant membrane trafficking, chemical libraries have been screened first using tobacco pollen growth assay and then Arabidopsis live cell imaging assay (Drakakaki G. et al., Proc Natl Acad Sci USA 2011, 108, 17850-17855). In primary screen, small molecules that inhibited pollen gemination or pollen tube growth in in vitro culture condition were selected. For secondary screen, selected small molecules were tested in Arabidopsis plants expressing different fluorescence-tagged cellular markers. […] Locations of general organelle markers, such as HDEL-GFP (Endoplasmic Reticulum, ER), Gop1p-YFP (Golgi), SYP61-CFP (Trans-Golgi Network, TGN) and VHA1-GFP (TGN), are unaffected as well by ES20 treatment (FIGS. 9A and 9B).

[4] = system: general membrane trafficking (PIN2, BRI1, HDEL-GFP, Gop1p-YFP, SYP61-CFP, VHA1-GFP); assay: live cell imaging of fluorescence-tagged cargo and organelle markers; format: cell-based, Arabidopsis
Experimental: Transgenic plants expressing different fluorescence-tagged proteins were examined for their cellular localization in the DMSO control treatment and after 2 hours of 5 μM ES20 treatment.
as §3

[5] = system: CSC (YFP-CesA6) trafficking in root epidermal cells; assay: YFP-CesA6 localization and FRAP after short-term ES20 treatment; format: cell-based, Arabidopsis
Text: FIGS. 5A and 5B. […] FIGS. 5C and 5D. […] FIGS. 5E and 5F. The exocytic delivery of CSC to the plasma membrane was reduced after ES20 treatment. *** indicates p<0.001 by paired t-test.
A large knowledge gap in plant biology is that it is […] how the activities of large protein complexes, such as CSC, are integrated with their cellular transport. Golgi localized CSCs are delivered to the plasma membrane to catalyze cellulose synthesis. CSCs are also localized to some small vesicles named SmaCCs. It is not known what occurs to CSCs when the catalytic core fails to bind a functional substrate. In order to understand better on the integration of CSC catalytic activity and CSC trafficking, we took a straight approach and observed the localization of CesA6 after short-term ES20 treatment. […] Reduced CSC density at the plasma membrane and increased SmaCCs density could be the result of increased endocytosis or decreased exocytic delivery of CSC. We then performed fluorescence recovery after photobleaching experiment to test whether the exocytic delivery of CSC was affected by ES20 treatment. We bleached YFP-CesA6 fluorescence at the plasma membrane and then observed the delivery of new CSC to the plasma membrane (FIG. 5D).

[6] = system: cesa6 E929K mutant and transgenic plants that express CesA6 E929K in wildtype; assay: root growth of cesa6 E929K mutant and CesA6 E929K transgenic plants; format: in vivo; settings: Arabidopsis thaliana; 1 μM of ES20; read-out: root length relative to plants grown on normal media
Text: The root length of […] mutant and transgenic plants that express CesA6^E929K in wildtype is about 80% of those grown on normal media.
The mutations we found are located in Arabidopsis thaliana CesA6 (AT5G64740), CesA4 (AT5G44030), CesA7 (AT5G17420) and CesA8 (AT4G18780) genes. Single nucleotide change in these mutants causes single amino acid change in CesA proteins and lead to reduced sensitivity to cellulosin (endosidin20 or ES20). The mutations we have discovered are listed in Table 1 and FIG. 11A showing the conserved amino acid residues of those subtypes of cellulose synthases. […] One is to create mutations in CesA6 homology gene in crop. The second is to express the mutant CesA6 in crops without knocking out endogenous CesA genes.

[7] = system: fra5 (CesA7 P557T) plants; assay: growth response of fra5 mutant to ES20; format: in vivo, Arabidopsis thaliana
Text: (§4) FIG. 6A. Seedlings of Wildtype and fra5 grown on growth media supplemented with DMSO or ES20. FIG. 6B. Seedlings of Wildtype and any1 grown on growth media supplemented with DMSO or ES20. FIGS. 6C, 6D, 6E and 6F depict quantification on the growth of wildtype, […] and any/in the presence or absence of ES20.
(§5) Due to the conservation of plant CesAs in their central cytoplasmic domains, we hypothesized that ES20 targeted multiple CesAs to inhibit growth. In order to test this hypothesis, we tested the response of fra5 and any/to ES20. The mutant fra5 carries a mutation of P557T in Arabidopsis thaliana CesA7. CesA7 P557 aligns to CesA6 P595. […] The mutant any/carries a mutation of D604N in Arabidopsis CesA1. D604 in CesA1 aligns to D605 in CesA6.

[8] = system: any1 (CesA1 D604N) plants; assay: growth response of any1 mutant to ES20; format: in vivo, Arabidopsis
Text: as §4, §5

SMILES: COc1ccc(C(=O)NC(=S)NNC(=O)c2ccccc2C)cc1 [ES20]
- Kd [1]: 15.4 ± 5.9 µM
- root phenotype after short-term treatment ([2]; 5 μM for 12 hours in liquid growth media): roots became swollen in the tip region
- activity at 1 µM ([2]; 144 h, read-out: root length relative to plants grown on DMSO): ~25%
- activity at 1 µM ([2]; read-out: root length relative to plants grown on normal media): ~20%
- hypocotyl phenotype of seedlings grown under dark condition ([2]; dark-grown, dosage dependent): shorter and swollen hypocotyls
- root growth arrest ([2]; wild type plants, 5 μM): completely arrests root growth
- root phenotype of seedlings grown on media with compound ([2]; wildtype, dosage dependent): shorter and swollen roots
- content of crystalline cellulose relative to seedlings grown in the absence of ES20 [3]: about 50%
- growth inhibition of tomato (tomato): significantly inhibit the growth
- growth inhibition of horseweed (horseweed): significantly inhibit the growth
- tobacco pollen tube growth (tobacco pollen tube): inhibited tobacco pollen tube growth
- trafficking of cargo proteins PIN2 and BRI1 [4]: did not significantly affect the trafficking
- locations of general organelle markers (ER, Golgi, TGN) ([4]; 2 hours of 5 μM ES20 treatment (FIGS. 9A, 9B)): unaffected
- density of plasma membrane localized CesA6 ([5]; root epidermal cells, short-term ES20 treatment): significantly reduced
- numbers of SmaCCs that contain CesA6 ([5]; short-term ES20 treatment): significantly increased
- CSC delivery to the plasma membrane (FRAP) ([5]; versus DMSO control): significantly lower than the DMSO control
- activity at 1 µM [6]: ~80%
- sensitivity of fra5 plants to ES20 [7]: reduced sensitivity to ES20
- sensitivity of any1 plants to ES20 [8]: less sensitive to ES20

Source: patent publication US20250340511A1, “CELLULOSE SYNTHASE INHIBITORS AS A NEW CLASS OF HERBICIDE AND NON-GMO CROPS THAT ARE RESISTANT TO THE HERBICIDE” (Purdue Research Foundation, priority 2017, published 2025)
